How the values were obtained:
[1] = Elution from loaded gauze; type: physicochemical
Protocol: The gauzes were weighed before soaking, after soaking and after drying for 24 hours. To assess the elution profile of the EDTA complexes from gauze, the loaded gauzes were immersed in water and saline (Table 6 and Table 7). […] After day 2, the eluting of silver, zinc and EDTA decreased more than 5 times compared to day 1.

[2] = Cumulative elution from carbopol hydrogel; type: physicochemical
Protocol: Hydrogels were loaded with EDTA compounds and investigated for elution of the silver, zinc and EDTA. Carbopol ETD 2020 was obtained from Lubrizol Advanced Materials, Inc. USA. 1.2 g carbopol power was dissolved in 42.36 g deionized water for 1 hour to fully hydrate. Then 8.4 ml of the EDTA complexes and 4.8 g glycerine were added into carbopol solution with vigorous stirring; finally, 3 g 50% triethanolamine was dropped into the suspension to obtain final products: carbopol hydrogel with EDTA complexes.
The silver, zinc and EDTA increased in saline day by day, which indicated the release of silver, zinc and EDTA can be controlled from the hydrogel.

cells = assay: Direct cytotoxicity, Neutral Red Uptake assay

With `O=C([O-])CN(CCN(CC(=O)[O-])CC(=O)[O-])CC(=O)[O-].[Ag+].[Ag+].[Zn+2]` [EDTA compound 4, sample 1] the “Elution in saline (ppm) EDTA” value ([1]; day 1) was 24.65 ± 2.40 ppm, the “Elution in saline (ppm) Silver” value ([1]; day 1) was 49.91 ± 2.29 ppm and the “Elution in saline (ppm) Zinc” value ([1]; day 1) was 29.69 ± 2.40 ppm. The “Elution in water (ppm) EDTA” value ([1]; day 1) was 18.09 ± 3.19 ppm, the “Elution in water (ppm) Silver” value ([1]; day 1) was 35.89 ± 5.66 ppm and the “Elution in water (ppm) Zinc” value ([1]; day 1) was 21.99 ± 2.85 ppm. The “Elution in saline (ppm) EDTA” value ([1]; day 2) was 9.19 ± 3.42 ppm, the “Elution in saline (ppm) Silver” value ([1]; day 2) was 12.76 ± 4.44 ppm and the “Elution in saline (ppm) Zinc” value ([1]; day 2) was 9.14 ± 2.77 ppm. The “Elution in water (ppm) EDTA” value ([1]; day 2) was 12.54 ± 3.11 ppm, the “Elution in water (ppm) Silver” value ([1]; day 2) was 25.27 ± 5.63 ppm and the “Elution in water (ppm) Zinc” value ([1]; day 2) was 15.66 ± 2.73 ppm. For the same compound, the “Elution in saline (ppm) EDTA” value ([1]; day 3) was 1.83 ± 0.26 ppm, the “Elution in saline (ppm) Silver” value ([1]; day 3) was 3.43 ± 0.54 ppm and the “Elution in saline (ppm) Zinc” value ([1]; day 3) was 3.71 ± 0.27 ppm. For the same compound, the “Elution in water (ppm) EDTA” value ([1]; day 3) was 1.90 ± 0.79 ppm, the “Elution in water (ppm) Silver” value ([1]; day 3) was 4.93 ± 2.56 ppm and the “Elution in water (ppm) Zinc” value ([1]; day 3) was 4.42 ± 1.62 ppm. The “Elution in saline (ppm) EDTA” value ([1]; day 4) was 1.28 ± 0.84 ppm, the “Elution in saline (ppm) Silver” value ([1]; day 4) was 2.29 ± 1.73 ppm and the “Elution in saline (ppm) Zinc” value ([1]; day 4) was 3.42 ± 0.93 ppm. For the same compound, the “Elution in water (ppm) EDTA” value ([1]; day 4) was 1.27 ± 0.84 ppm, the “Elution in water (ppm) Silver” value ([1]; day 4) was 1.75 ± 0.76 ppm and the “Elution in water (ppm) Zinc” value ([1]; day 4) was 3.26 ± 0.35 ppm. The “Elution in saline (ppm) EDTA” value ([1]; day 5) was 0.45 ± 0.15 ppm, the “Elution in saline (ppm) Silver” value ([1]; day 5) was 2.52 ± 2.26 ppm and the “Elution in saline (ppm) Zinc” value ([1]; day 5) was 2.68 ± 2.00 ppm. For the same compound, the “Elution in water (ppm) EDTA” value ([1]; day 5) was 0.87 ± 0.36 ppm, the “Elution in water (ppm) Silver” value ([1]; day 5) was 0.85 ± 0.34 ppm and the “Elution in water (ppm) Zinc” value ([1]; day 5) was 2.06 ± 1.21 ppm. The “Elution in saline (ppm) EDTA” value ([2]; day 1) was 26.39 ± 2.06 ppm, the “Elution in saline (ppm) Silver” value ([2]; day 1) was 32.09 ± 3.02 ppm and the “Elution in saline (ppm) Zinc” value ([2]; day 1) was 22.12 ± 3.31 ppm. For the same compound, the “Elution in water (ppm) EDTA” value ([2]; day 1) was 31.12 ± 5.40 ppm, the “Elution in water (ppm) Silver” value ([2]; day 1) was 44.39 ± 5.98 ppm and the “Elution in water (ppm) Zinc” value ([2]; day 1) was 31.88 ± 3.53 ppm. For the same compound, the “Elution in saline (ppm) EDTA” value ([2]; day 2) was 27.18 ± 2.34 ppm, the “Elution in saline (ppm) Silver” value ([2]; day 2) was 37.09 ± 2.91 ppm and the “Elution in saline (ppm) Zinc” value ([2]; day 2) was 30.90 ± 5.81 ppm. For the same compound, the “Elution in water (ppm) EDTA” value ([2]; day 2) was 26.21 ± 4.20 ppm, the “Elution in water (ppm) Silver” value ([2]; day 2) was 47.13 ± 5.03 ppm and the “Elution in water (ppm) Zinc” value ([2]; day 2) was 36.09 ± 3.61 ppm. The “Elution in saline (ppm) EDTA” value ([2]; day 3) was 35.02 ± 0.72 ppm, the “Elution in saline (ppm) Silver” value ([2]; day 3) was 47.05 ± 2.79 ppm and the “Elution in saline (ppm) Zinc” value ([2]; day 3) was 36.73 ± 3.64 ppm. The “Elution in water (ppm) EDTA” value ([2]; day 3) was 37.28 ± 2.58 ppm, the “Elution in water (ppm) Silver” value ([2]; day 3) was 45.58 ± 4.54 ppm and the “Elution in water (ppm) Zinc” value ([2]; day 3) was 34.28 ± 4.55 ppm. The “Elution in saline (ppm) EDTA” value ([2]; day 4) was 37.71 ± 1.92 ppm, the “Elution in saline (ppm) Silver” value ([2]; day 4) was 51.24 ± 1.53 ppm and the “Elution in saline (ppm) Zinc” value ([2]; day 4) was 40.31 ± 1.84 ppm. The “Elution in water (ppm) EDTA” value ([2]; day 4) was 37.53 ± 3.27 ppm, the “Elution in water (ppm) Silver” value ([2]; day 4) was 46.88 ± 6.86 ppm and the “Elution in water (ppm) Zinc” value ([2]; day 4) was 33.78 ± 2.20 ppm. For the same compound, the “Elution in saline (ppm) EDTA” value ([2]; day 5) was 40.57 ± 1.41 ppm, the “Elution in saline (ppm) Silver” value ([2]; day 5) was 59.55 ± 1.21 ppm and the “Elution in saline (ppm) Zinc” value ([2]; day 5) was 43.22 ± 3.91 ppm. For the same compound, the “Elution in water (ppm) EDTA” value ([2]; day 5) was 35.11 ± 5.39 ppm, the “Elution in water (ppm) Silver” value ([2]; day 5) was 45.91 ± 7.04 ppm and the “Elution in water (ppm) Zinc” value ([2]; day 5) was 35.99 ± 1.16 ppm.

With `CCCCCCCCCCCCOS(=O)(=O)[O-].[Na+]` [SDS, sodium dodecyl sulphate, reference compound] the Interpretation (cells; 0.05 mg/ml) was “Cytotoxic (if the percentage viability is less than 70% of the untreated control, then the substance is considered cytotoxic)”, the “Percentage of Control/Percentage Viability (%)” value (cells; 0.05 mg/ml) was 6.57 ± 0% and the Interpretation (cells; 0.1 mg/ml) was “Cytotoxic (if the percentage viability is less than 70% of the untreated control, then the substance is considered cytotoxic)”. For the same compound, the “Percentage of Control/Percentage Viability (%)” value (cells; 0.1 mg/ml) was 6.57 ± 0%, the Interpretation (cells; 0.15 mg/ml) was “Cytotoxic (if the percentage viability is less than 70% of the untreated control, then the substance is considered cytotoxic)” and the “Percentage of Control/Percentage Viability (%)” value (cells; 0.15 mg/ml) was 6.57 ± 0%. The Interpretation (cells; 0.2 mg/ml) was “Cytotoxic (if the percentage viability is less than 70% of the untreated control, then the substance is considered cytotoxic)” and the “Percentage of Control/Percentage Viability (%)” value (cells; 0.2 mg/ml) was 6.57 ± 0%.
